Read-outs that look alike come from different tables or passages of the source.
Test system: Wheat and Barley and weed species
Assay: Post-Emergent Test III: postemergent herbicidal activity in wheat and barley, visual rating after 21 d and probit GR20/GR50/GR80/GR90 (Tables 9-13)
Format: in vivo
Conditions: for pest or weed control at 35 g/ha / pest or weed control at 70 g/ha / pest or weed control at 140 g/ha: post-emergence, 504 h
Excerpt: Herbicidal evaluations were made visually on a scale of 0 to 100 where 0 represents no activity and 100 represents complete plant death.
Seeds of the desired test plant species were planted in Sun Gro MetroMix® 306 planting mixture, which typically has a pH of 6.0 to 6.8 and an organic matter content of about 30 percent, in plastic pots with a surface area of 103.2 square centimeters (cm^2). When required to ensure good germination and healthy plants, a fungicide treatment and/or other chemical or physical treatment was applied. The plants were grown for 7-36 days (d) in a greenhouse with an approximate 14 hour (h) photoperiod which was maintained at about 18° C. during the day and 17° C. during the night. Nutrients and water were added on a regular basis and supplemental lighting was provided with overhead metal halide 1000-Watt lamps as necessary. The plants were employed for testing when they reached the second or third true leaf stage.
A weighed amount, determined by the highest rate to be tested, of each test compound was placed in a 25 mL glass vial and was dissolved in 4 mL of a 97:3 v/v mixture of acetone and DMSO to obtain concentrated stock solutions. […] The concentrated stock solutions obtained were diluted with 20 mL of an aqueous mixture containing acetone, water, isopropyl alcohol, DMSO, Agri-Dex crop oil concentrate, and X-77 surfactant in a 48:39:10:1.5:1.5:0.02 v/v ratio to obtain spray solutions containing the highest application rates. Additional application rates were obtained by serial dilution of 12 mL of the high rate solution into a solution containing 2 mL of a 97:3 v/v mixture of acetone and DMSO and 10 mL of an aqueous mixture containing acetone, water, isopropyl alcohol, DMSO, Agri-Dex crop oil concentrate, and X-77 surfactant in a 48:39:10:1.5:1.5:0.02 v/v ratio to obtain ½×, ¼×, ⅛× and 1/16× rates of the high rate. Compound requirements are based upon a 12 mL application volume at a rate of 187 liters per hectare (L/ha). Formulated compounds were applied to the plant material with an overhead Mandel track sprayer equipped with 8002E nozzles calibrated to deliver 187 L/ha over an application area of 0.503 square meters at a spray height of 18 inches (43 cm) above the average plant canopy height. Control plants were sprayed in the same manner with the solvent blank.
The treated plants and control plants were placed in a greenhouse as described above and watered by subirrigation to prevent wash-off of the test compounds. After 21 d, the condition of the test plants as compared with that of the untreated plants was determined visually and scored on a scale of 0 to 100 percent where 0 corresponds to no injury and 100 corresponds to complete kill and are presented as indicated in Table 4.
By applying the well-accepted probit analysis as described by J. Berkson in Journal of the American Statistical Society, 48, 565 (1953) and by D. Finney in “Probit Analysis” Cambridge University Press (1952), herbicidal injury of a specific compound at various rates can be used to calculate GR20, GR50, GR80 and GR90 values, which are defined as growth reduction factors that correspond to the effective dose of herbicide required to provide plant growth reduction (GR) of 20 percent, 50 percent, 80 percent and 90 percent, respectively. Probit analysis was applied to data collected from multiple dose rates of individual compounds utilizing the procedures explained in the following examples. The data for some of the dose rates and analysis of all of the dose rates are captured in the following tables.

COC(=O)c1nc(-c2c(F)cc3c(c2F)OC(F)(F)O3)cc(N)c1Cl [Compound 46]
GR50 ALOMY (ALOMY black-grass (Alopecurus myosuroides), growth reduction of 50%, probit analysis): 18 g ai/ha
GR80 ALOMY (ALOMY black-grass (Alopecurus myosuroides), growth reduction of 80%, probit analysis): 35 g ai/ha
GR90 ALOMY (ALOMY black-grass (Alopecurus myosuroides), growth reduction of 90%, probit analysis): 49 g ai/ha
GR50 APESV (APESV bentgrass (Apera spica-venti), growth reduction of 50%, probit analysis): 88 g ai/ha
GR80 APESV (APESV bentgrass (Apera spica-venti), growth reduction of 80%, probit analysis): >140 g ai/ha
GR90 APESV (APESV bentgrass (Apera spica-venti), growth reduction of 90%, probit analysis): >140 g ai/ha
GR20 HORVS (HORVS barley, spring (crop), growth reduction of 20%, probit analysis): 8 g ai/ha
pest or weed control at 35 g/ha (Hordeum vulgare, HORVS barley, spring (crop), 35 g ai/ha, read-out: Visual Growth Reduction (%) 21 Days After Application HORVS): 45 to 59%
pest or weed control at 70 g/ha (Hordeum vulgare, HORVS barley, spring (crop), 70 g ai/ha, read-out: Visual Growth Reduction (%) 21 Days After Application HORVS): 60 to 74%
pest or weed control at 140 g/ha (Hordeum vulgare, HORVS barley, spring (crop), 140 g ai/ha, read-out: Visual Growth Reduction (%) 21 Days After Application HORVS): 85 to 94%
Visual Growth Reduction (%) 21 Days After Application KCHSC (KCHSC kochia (Kochia scoparia), 35 g ai/ha): B (85-94)
Visual Growth Reduction (%) 21 Days After Application KCHSC (KCHSC kochia (Kochia scoparia), 70 g ai/ha): A (95-100)
Visual Growth Reduction (%) 21 Days After Application KCHSC (KCHSC kochia (Kochia scoparia), 140 g ai/ha): A (95-100)
GR50 KCHSC (KCHSC kochia (Kochia scoparia), growth reduction of 50%, probit analysis): 1 g ai/ha
GR80 KCHSC (KCHSC kochia (Kochia scoparia), growth reduction of 80%, probit analysis): 7 g ai/ha
GR90 KCHSC (KCHSC kochia (Kochia scoparia), growth reduction of 90%, probit analysis): 17 g ai/ha
GR50 LOLSS (LOLSS ryegrass, growth reduction of 50%, probit analysis): 91 g ai/ha
GR80 LOLSS (LOLSS ryegrass, growth reduction of 80%, probit analysis): >140 g ai/ha
GR90 LOLSS (LOLSS ryegrass, growth reduction of 90%, probit analysis): >140 g ai/ha
GR50 SETVI (SETVI green foxtail (Setaria viridis), growth reduction of 50%, probit analysis): 106 g ai/ha
GR80 SETVI (SETVI green foxtail (Setaria viridis), growth reduction of 80%, probit analysis): >140 g ai/ha
GR90 SETVI (SETVI green foxtail (Setaria viridis), growth reduction of 90%, probit analysis): >140 g ai/ha
GR20 TRZAS (TRZAS wheat, spring (crop), growth reduction of 20%, probit analysis): 10 g ai/ha
pest or weed control at 35 g/ha (Triticum aestivum, TRZAS wheat, spring (crop), 35 g ai/ha, read-out: Visual Growth Reduction (%) 21 Days After Application TRZAS): 60 to 74%
pest or weed control at 70 g/ha (Triticum aestivum, TRZAS wheat, spring (crop), 70 g ai/ha, read-out: Visual Growth Reduction (%) 21 Days After Application TRZAS): 75 to 84%
pest or weed control at 140 g/ha (Triticum aestivum, TRZAS wheat, spring (crop), 140 g ai/ha, read-out: Visual Growth Reduction (%) 21 Days After Application TRZAS): 85 to 94%
pest or weed control at 35 g/ha (ALOMY black-grass (Alopecurus myosuroides), 35 g ai/ha, read-out: Visual Growth Reduction (%) 21 Days After Application ALOMY): 60 to 74%
pest or weed control at 70 g/ha (ALOMY black-grass (Alopecurus myosuroides), 70 g ai/ha, read-out: Visual Growth Reduction (%) 21 Days After Application ALOMY): 95 to 100%
pest or weed control at 140 g/ha (ALOMY black-grass (Alopecurus myosuroides), 140 g ai/ha, read-out: Visual Growth Reduction (%) 21 Days After Application ALOMY): 95 to 100%
pest or weed control at 35 g/ha (APESV bentgrass (Apera spica-venti), 35 g ai/ha, read-out: Visual Growth Reduction (%) 21 Days After Application APESV): 0 to 29%
pest or weed control at 70 g/ha (APESV bentgrass (Apera spica-venti), 70 g ai/ha, read-out: Visual Growth Reduction (%) 21 Days After Application APESV): 45 to 59%
pest or weed control at 140 g/ha (APESV bentgrass (Apera spica-venti), 140 g ai/ha, read-out: Visual Growth Reduction (%) 21 Days After Application APESV): 60 to 74%
pest or weed control at 35 g/ha (LOLSS ryegrass, 35 g ai/ha, read-out: Visual Growth Reduction (%) 21 Days After Application LOLSS): 0 to 29%
pest or weed control at 70 g/ha (LOLSS ryegrass, 70 g ai/ha, read-out: Visual Growth Reduction (%) 21 Days After Application LOLSS): 45 to 59%
pest or weed control at 140 g/ha (LOLSS ryegrass, 140 g ai/ha, read-out: Visual Growth Reduction (%) 21 Days After Application LOLSS): 60 to 74%
pest or weed control at 35 g/ha (SETVI green foxtail (Setaria viridis), 35 g ai/ha, read-out: Visual Growth Reduction (%) 21 Days After Application SETVI): 0 to 29%
pest or weed control at 70 g/ha (SETVI green foxtail (Setaria viridis), 70 g ai/ha, read-out: Visual Growth Reduction (%) 21 Days After Application SETVI): 30 to 44%
pest or weed control at 140 g/ha (SETVI green foxtail (Setaria viridis), 140 g ai/ha, read-out: Visual Growth Reduction (%) 21 Days After Application SETVI): 60 to 74%
